Laboratory results: patent US20050049282A1, “Process” (priority 2001, published 2005)

Experiments:
[1] = Stability of omeprazole in alcoholic solution under chromatographic conditions; format: physicochemical; conditions: methanol with addition of 0.1% diethylamine
From the text: It has previously been reported that alcoholic solution of omeprazole is not stable in room temperature and in daylight. There is thus a risk that one or several decomposition products might co-elute with one of the enantiomers.

[2] = room temperature and daylight; cited from earlier work

COc1ccc2[nH]c([S+]([O-])Cc3ncc(C)c(OC)c3C)nc2c1 (racemic) [omeprazole, 5-methoxy-2-[[(4-methoxy-3,5-dimethyl-2-pyridinyl)methyl]sulfinyl]-1H-benzimidazole]
stability of solution in methanol [1]: stabilizes a solution of omeprazole in methanol to a sufficient degree
stability of alcoholic solution [2]: not stable
